A short description of data set [1]: MTT assay in BJ1 cells. Type of data set: cell-based. Particulars: human, hTERT-BJ1-PTERT(3.4)-SEAP cells, BJ1, read-out: MTT (Inhibition μM ± SD); for viability at 48 h, 1 µM: compound concentration 1 μM; for viability at 48 h, 10 µM: compound concentration 10 μM; for viability at 48 h, 100 µM: compound concentration 100 μM. The method in brief:
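After 48 h drug treatment, cells in DMEM/Medium 199 (4:1) with 10% FBS were given MTT (5 mg/ml stock) in serum-free medium for 4 h at 37 °C, lysed overnight in 20% SDS/50% DMF, and absorbance read at 570 nm.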

The test system of data set [2] is hTERT expression. Briefly: SEAP assay in hTERT-BJ1-PTERT(3.4)-SEAP cells. Type of data set: cell-based. Conditions: Homo sapiens, read-out: SEAP (Inhibition μM ± SD). On the procedure:
A total of 2×10^3 hTERT-BJ1-PTERT(3.4)-SEAP cells were seeded in the 96-well cell culture plate, and incubated with DMEM (GIBCO®)/glucose mixture and Medium 199 (GIBCO®)/10% FBS/1 mM sodium pyruvate (GIBCO®)/4 mM L-glutamine (GIBCO®) mixture at a ratio of 4:1 at 37° C. for 24 hours. When the cells were attached in the bottom of the well, the seriously-diluted compounds with different concentrations ([…]) were treated with the cells for 48 hours, and the PTERT(3.4)-SEAP cells without drug treatment were being the control. After 48 hours of drug treatment, the cultured medium were collected for performing the analysis of SEAP activity. The cells were washed with 1×PBS once immediately, and the MTT assay was performed to compare the compounds with the relative toxicity or the influence to the proliferation and activity.
The cellular medium after the cellular incubation was transferred into the eppondorf tube, and the activity of endogeneous alkaline phosphatase was inactivated at 65° C. for 10 minutes. After centrification, the mixture was obtained by mixing 50 μl of the supernatant with the equal volume of the SEAP buffer. The mixture and the substrate (120 mM of p-nitrophenylphosphate) were preheated at 37° C. for 10 minutes respectively, and the mixture and the substrate were mixed at a ratio of 1:10 and reacted at 37° C. The absorbance of visible light at 405 nm was determined at the appropriate time intervals, and the enzymatic activity of SEAP was represented by the speed of the increasing absorbance at 405 nm.

Data set [3] is described as follows: MTT assay in H1299 cells. Type of data set: cell-based. Conditions: human, H1299 cells (H1299/PhTERT-driven SEAP reporter system), H1299, read-out: MTT (Inhibition μM ± SD); for viability at 24 h, 1 µM: compound concentration 1 μM; for viability at 24 h, 10 µM: compound concentration 10 μM; for viability at 24 h, 100 µM: compound concentration 100 μM. The method in brief:
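H1299 cells, 2×10^3 per well, treated with drug 48 h. MTT (5 mg/ml stock) added for 4 h at 37° C, then SDS/DMF lysis overnight; absorbance at 570 nm gives viability, used alongside SEAP reporter readout to correct for cell number.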
(Tetrazolium assays rely on reduction of a dye to a coloured formazan, in cell work by metabolically active cells.)

The mark [4] stands for this setting: BJ1, compound concentration 1 μM.
The mark [5] stands for this setting: BJ1, compound concentration 10 μM.
Where [6] appears, read: BJ1, compound concentration 100 μM.

Each structure is given as a SMILES string. Read-outs that look alike come from different tables or passages of the source.

Take `O=C(Nc1ccc2c(c1)C(=O)c1cc(NC(=O)c3ccccc3)ccc1C2=O)c1ccccc1` [Compound 29, 2,7-Bis(benzoamido)anthraquinone]: the melting point (usually the temperature, or range, at which the solid turns liquid) is 224 °C. Besides, in data set [1], the viability at 48 h, 1 µM was 92 ± 2%; the viability at 48 h, 10 µM amounted to 85 ± 2%; the viability at 48 h, 100 µM was determined as 97 ± 3%. Moreover, the activity at 1 µM in data set [2] (setting [4]) was found to be 89 ± 2%. Further, the activity at 10 µM in data set [2] (setting [5]) amounted to 72 ± 8%. The activity at 100 µM in data set [2] (setting [6]) was found to be 36 ± 13%. For the same compound, in data set [3], the viability at 24 h, 1 µM came to 71 ± 24%; the viability at 24 h, 10 µM came to 47 ± 13%; the viability at 24 h, 100 µM came to 41 ± 30%.

Consider `CCNCC(=O)Nc1ccc2c(c1)C(=O)c1cc(NC(=O)CNCC)ccc1C2=O` [Compound 10, 2,7-Bis[2-(ethylamino)acetamido]anthraquinone], for which the melting point turned out to be 145 °C. Moreover, in data set [1], the viability at 48 h, 1 µM was found to be 72 ± 2%; the viability at 48 h, 10 µM came out at 56 ± 2%; the viability at 48 h, 100 µM turned out to be 37 ± 1%. In data set [2], the activity at 1 µM is 90 ± 5%, the activity at 10 µM came out at 41 ± 4% and the activity at 100 µM came to 17 ± 21%. In data set [3], the viability at 24 h, 1 µM came out at 52 ± 11%; the viability at 24 h, 10 µM is 24 ± 5%; the viability at 24 h, 100 µM is 3 ± 4%.

Compound `CCC(=O)Nc1ccc2c(c1)C(=O)c1cc(NC(=O)CC)ccc1C2=O` [Compound 27, 2,7-Bis(propionamido)anthraquinone] yielded a melting point of 291 °C. Further, in data set [1], the viability at 48 h, 1 µM came out at 77 ± 2%; the viability at 48 h, 10 µM was found to be 57 ± 2%; the viability at 48 h, 100 µM came out at 48 ± 2%. Further, in data set [2] (setting [4]), the activity at 1 µM is 78 ± 10%. Further, the activity at 10 µM in data set [2] (setting [5]) was 64 ± 8%. Further, the activity at 100 µM in data set [2] (setting [6]) was found to be 51 ± 8%. Besides, in data set [3], the viability at 24 h, 1 µM stood at 70 ± 25%; the viability at 24 h, 10 µM is 38 ± 17%; the viability at 24 h, 100 µM was found to be 35 ± 15%.

On to `CC(C)CNCC(=O)Nc1ccc2c(c1)C(=O)c1cc(NC(=O)CNCC(C)C)ccc1C2=O` [Compound 14, 2,7-Bis[2-(isobutylamino)acetamido]anthraquinone], for which the melting point worked out at 146 °C. Also, in data set [1], the viability at 48 h, 1 µM turned out to be 107 ± 3%; the viability at 48 h, 10 µM turned out to be 37%; the viability at 48 h, 100 µM was 39%. Also, in data set [2] (setting [4]), the activity at 1 µM worked out at 83 ± 5%. For the same compound, in data set [2] (setting [5]), the activity at 10 µM was 44 ± 2%. In addition, in data set [2] (setting [6]), the activity at 100 µM stood at 40 ± 3%. For the same compound, in data set [3], the viability at 24 h, 1 µM amounted to 108 ± 8%; the viability at 24 h, 10 µM was found to be 39 ± 10%; the viability at 24 h, 100 µM stood at 11 ± 5%.

For the compound `CCCCNCC(=O)Nc1ccc2c(c1)C(=O)c1cc(NC(=O)CNCCCC)ccc1C2=O` [Compound 5, 2,7-Bis[2-(butylamino)acetamido]anthraquinone], the melting point is 125 °C. Further, in data set [1], the viability at 48 h, 1 µM stood at 103 ± 1%; the viability at 48 h, 10 µM came out at 41 ± 1%; the viability at 48 h, 100 µM was determined as 43 ± 1%. In addition, in data set [2] (setting [4]), the activity at 1 µM came to 27 ± 18%. Further, the activity at 10 µM in data set [2] (setting [5]) amounted to 24 ± 24%. The activity at 100 µM in data set [2] (setting [6]) worked out at 80 ± 14%. In addition, in data set [3], the viability at 24 h, 1 µM was determined as 91 ± 16%; the viability at 24 h, 10 µM was determined as 17 ± 9%; the viability at 24 h, 100 µM came out at 15 ± 11%.

`CC(C)NCC(=O)Nc1ccc2c(c1)C(=O)c1cc(NC(=O)CNC(C)C)ccc1C2=O` [Compound 13, 2,7-Bis[2-(isopropylamino)acetamido]anthraquinone] showed a melting point of 158 °C. Also, in data set [1], the viability at 48 h, 1 µM worked out at 89 ± 1%; the viability at 48 h, 10 µM worked out at 41 ± 2%; the viability at 48 h, 100 µM is 39 ± 1%. In addition, in data set [2], the activity at 1 µM was determined as 79 ± 14%, the activity at 10 µM came out at 55 ± 19% and the activity at 100 µM was found to be 45 ± 11%. For the same compound, in data set [3], the viability at 24 h, 1 µM came out at 78 ± 10%; the viability at 24 h, 10 µM is 26 ± 15%; the viability at 24 h, 100 µM came out at 6 ± 11%.

In the case of `CC(=O)Nc1ccc2c(c1)C(=O)c1cc(NC(C)=O)ccc1C2=O` [Compound 26, 2,7-Bis(acetamido)anthraquinone], the melting point is 340 °C. In data set [1], the viability at 48 h, 1 µM amounted to 106 ± 1%; the viability at 48 h, 10 µM stood at 91 ± 2%; the viability at 48 h, 100 µM came out at 91 ± 2%. Further, in data set [2], the activity at 1 µM is 123 ± 5%, the activity at 10 µM worked out at 117 ± 3% and the activity at 100 µM is 117 ± 5%. Moreover, in data set [3], the viability at 24 h, 1 µM is 117 ± 15%; the viability at 24 h, 10 µM was determined as 83 ± 13%; the viability at 24 h, 100 µM was found to be 55 ± 11%.

Consider `O=C(CCCCl)Nc1ccc2c(c1)C(=O)c1cc(NC(=O)CCCCl)ccc1C2=O` [Compound 25, 2,7-Bis(4-chlorobutyramido)anthraquinone], for which the melting point worked out at 234 °C. Moreover, in data set [1], the viability at 48 h, 1 µM turned out to be 72 ± 3%; the viability at 48 h, 10 µM came out at 62 ± 2%; the viability at 48 h, 100 µM turned out to be 58 ± 3%. Further, the activity at 1 µM in data set [2] (setting [4]) was 13 ± 58%. Further, the activity at 10 µM in data set [2] (setting [5]) is 42 ± 45%. The activity at 100 µM in data set [2] (setting [6]) came out at 75 ± 16%. In addition, in data set [3], the viability at 24 h, 1 µM came to 84 ± 18%; the viability at 24 h, 10 µM is 40 ± 2%; the viability at 24 h, 100 µM came out at 22 ± 2%.

The compound `O=C(CN1CCCCC1)Nc1ccc2c(c1)C(=O)c1cc(NC(=O)CN3CCCCC3)ccc1C2=O` [Compound 7, 2,7-Bis[2-(piperidino)acetamido]anthraquinone] showed a melting point of 243 °C. Besides, in data set [1], the viability at 48 h, 1 µM turned out to be 89 ± 1%; the viability at 48 h, 10 µM was found to be 78 ± 3%; the viability at 48 h, 100 µM stood at 22 ± 2%. In data set [2] (setting [4]), the activity at 1 µM stood at 118 ± 16%. In data set [2] (setting [5]), the activity at 10 µM stood at 121 ± 3%. Moreover, the activity at 100 µM in data set [2] (setting [6]) was determined as 103 ± 5%. Also, in data set [3], the viability at 24 h, 1 µM is 50 ± 16%; the viability at 24 h, 10 µM was found to be 37 ± 15%; the viability at 24 h, 100 µM came to 35 ± 11%.

With `CCCCNCCC(=O)Nc1ccc2c(c1)C(=O)c1cc(NC(=O)CCNCCCC)ccc1C2=O` [Compound 17, 2,7-Bis[3-(butylamino)propionamido]anthraquinone], the melting point is 168 °C. Further, in data set [1], the viability at 48 h, 1 µM came to 80 ± 3%; the viability at 48 h, 10 µM stood at 70 ± 1%; the viability at 48 h, 100 µM was found to be 40%. Moreover, in data set [2] (setting [4]), the activity at 1 µM is 88 ± 34%. Also, the activity at 10 µM in data set [2] (setting [5]) turned out to be 95 ± 46%. Also, the activity at 100 µM in data set [2] (setting [6]) amounted to 111 ± 25%. In data set [3], the viability at 24 h, 1 µM was found to be 82 ± 12%; the viability at 24 h, 10 µM is 52 ± 4%; the viability at 24 h, 100 µM came out at 14 ± 10%.

On to `CN(C)CCC(=O)Nc1ccc2c(c1)C(=O)c1cc(NC(=O)CCN(C)C)ccc1C2=O` [Compound 20, 2,7-Bis[3-(dimethylamino)propionamido]anthraquinone], for which the melting point turned out to be 196 °C. Besides, in data set [1], the viability at 48 h, 1 µM came out at 94 ± 7%; the viability at 48 h, 10 µM was determined as 30 ± 14%; the viability at 48 h, 100 µM is 22 ± 13%. Besides, in data set [2], the activity at 1 µM came to 86 ± 2%, the activity at 10 µM amounted to 61 ± 2% and the activity at 100 µM came out at 38%. Further, in data set [3], the viability at 24 h, 1 µM came out at 1 ± 104%; the viability at 24 h, 10 µM came out at 53 ± 13%; the viability at 24 h, 100 µM was found to be 1 ± 1%.

In turn, `O=C(CCc1ccccc1)Nc1ccc2c(c1)C(=O)c1cc(NC(=O)CCc3ccccc3)ccc1C2=O` [Compound 31, 2,7-Bis(phenylpropionamido)anthraquinone] returned a melting point of 268 °C. In data set [1], the viability at 48 h, 1 µM worked out at 89 ± 2%; the viability at 48 h, 10 µM was 44%; the viability at 48 h, 100 µM is 44 ± 1%. Also, the activity at 1 µM in data set [2] (setting [4]) worked out at 74 ± 29%. The activity at 10 µM in data set [2] (setting [5]) was found to be 92 ± 45%. Moreover, the activity at 100 µM in data set [2] (setting [6]) was found to be 43 ± 75%. Further, in data set [3], the viability at 24 h, 1 µM was found to be 102 ± 11%; the viability at 24 h, 10 µM was 94 ± 13%; the viability at 24 h, 100 µM was 76 ± 18%.

(Values after patent US20090253709A1 (NATIONAL DEFENSE MEDICAL CENTER, priority 2008, published 2009).)
